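Interpolation was linear, between the two tested concentrations surrounding the appropriate level; five concentrations were tested over 48 hours in 96-well plates. GI50 = concentration required for 50% inhibition of growth.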 Active and inactive are the calls of the source. Cut-off read from the data, not from the text of the source: active = GI50 up to about 1.1 µM and inactive = higher.
Columns and labels:
Test in all cases: NCI-60 cell line screen, 48 h
786-0 = tested on: 786-0
A498 = tested on: A498
A549 = tested on: A549
ACHN = tested on: ACHN
BT-549 = tested on: BT-549
CAKI-1 = tested on: CAKI-1
CCRF-CEM = tested on: CCRF-CEM
COLO 205 = tested on: COLO 205
DU-145 = tested on: DU-145
EKVX = tested on: EKVX
HCC 2998 = tested on: HCC 2998
HCT-116 = tested on: HCT-116
HCT-15 = tested on: HCT-15
HL-60 = tested on: HL-60
HOP-62 = tested on: HOP-62
HOP-92 = tested on: HOP-92
HT-29 = tested on: HT-29
Hs-578T = tested on: Hs-578T
IGROV-1 = tested on: IGROV-1
K562 = tested on: K562
KM12 = tested on: KM12
LOX IMVI = tested on: LOX IMVI
M14 = tested on: M14
MCF7 = tested on: MCF7
MDA-MB-231 = tested on: MDA-MB-231
MDA-MB-435 = tested on: MDA-MB-435
MDA-N = tested on: MDA-N
MOLT-4 = tested on: MOLT-4
Malme-3M = tested on: Malme-3M
NCI-H226 = tested on: NCI-H226
NCI-H23 = tested on: NCI-H23
NCI-H460 = tested on: NCI-H460
NCI-H522 = tested on: NCI-H522
NCI/ADR-RES = tested on: NCI/ADR-RES
OVCAR-3 = tested on: OVCAR-3
OVCAR-4 = tested on: OVCAR-4
OVCAR-5 = tested on: OVCAR-5
OVCAR-8 = tested on: OVCAR-8
PC-3 = tested on: PC-3
RPMI-8226 = tested on: RPMI-8226
RXF 393 = tested on: RXF 393
SF-268 = tested on: SF-268
SF-295 = tested on: SF-295
SF-539 = tested on: SF-539
SK-MEL-28 = tested on: SK-MEL-28
SK-MEL-2 = tested on: SK-MEL-2
SK-MEL-5 = tested on: SK-MEL-5
SK-OV-3 = tested on: SK-OV-3
SN12C = tested on: SN12C
SNB-19 = tested on: SNB-19
SNB-75 = tested on: SNB-75
SR = tested on: SR
SW-620 = tested on: SW-620
T47D = tested on: T47D
TK-10 = tested on: TK-10
U-251 = tested on: U-251
UACC-257 = tested on: UACC-257
UACC-62 = tested on: UACC-62
UO-31 = tested on: UO-31
KM-20L2 = tested on: KM-20L2

## CO[C@H]1C[C@H](O[C@H]2CC[C@]3(C=O)[C@H]4CC[C@]5(C)[C@@H](C6=CC(=O)OC6)CC[C@]5(O)[C@@H]4CC[C@]3(O)C2)O[C@H](C)[C@H]1O[C@@H]1O[C@H](CO[C@@H]2O[C@H](CO)[C@@H](O)[C@H](O)[C@H]2O)[C@@H](O)[C@H](O)[C@H]1O
786-0
  GI50: 27.2 nM (active)
A498
  GI50: 89.1 nM (active)
A549
  GI50: < 13.1 nM (active)
ACHN
  GI50: 18.6 nM (active)
BT-549
  GI50: 39 nM (active)
CAKI-1
  GI50: 22.3 nM (active)
CCRF-CEM
  GI50: > 100000 nM (inactive)
COLO 205
  GI50: 103 nM (active)
DU-145
  GI50: 15.6 nM (active)
EKVX
  GI50: 20.5 nM (active)
HCC 2998
  GI50: 158 nM (active)
HCT-116
  GI50: 23.9 nM (active)
HCT-15
  GI50: 40.5 nM
HL-60
  GI50: 36.1 nM (active)
HOP-62
  GI50: 15.8 nM (active)
HOP-92
  GI50: 84.5 nM (active)
HT-29
  GI50: 44.2 nM (active)
Hs-578T
  GI50: 27.8 nM (active)
IGROV-1
  GI50: 25.9 nM (active)
K562
  GI50: 85.7 nM (active)
KM12
  GI50: 104 nM (active)
LOX IMVI
  GI50: 37.3 nM (active)
M14
  GI50: 147 nM (active)
MCF7
  GI50: 54.6 nM (active)
MDA-MB-231
  GI50: 355 nM (active)
MDA-MB-435
  GI50: 166 nM (active)
MDA-N
  GI50: 128 nM (active)
MOLT-4
  GI50: 21.5 nM (active)
Malme-3M
  GI50: 58.8 nM (active)
NCI-H226
  GI50: 171 nM (active)
NCI-H23
  GI50: 16 nM (active)
NCI-H460
  GI50: < 13.2 nM (active)
NCI-H522
  GI50: 13.9 nM (active)
NCI/ADR-RES
  GI50: 34 nM (active)
OVCAR-3
  GI50: 24.1 nM (active)
OVCAR-4
  GI50: 28.1 nM (active)
OVCAR-5
  GI50: 67.1 nM (active)
OVCAR-8
  GI50: 43.4 nM (active)
PC-3
  GI50: 38 nM (active)
RPMI-8226
  GI50: 139 nM (active)
RXF 393
  GI50: 25.1 nM (active)
SF-268
  GI50: 35.6 nM (active)
SF-295
  GI50: 39.5 nM (active)
SF-539
  GI50: 35.3 nM (active)
SK-MEL-28
  GI50: 349 nM (active)
SK-MEL-2
  GI50: 235 nM (active)
SK-MEL-5
  GI50: 37 nM (active)
SK-OV-3
  GI50: 54.3 nM (active)
SN12C
  GI50: 28.9 nM (active)
SNB-19
  GI50: 186 nM (active)
SNB-75
  GI50: 110 nM (active)
SR
  GI50: 18.8 nM (active)
SW-620
  GI50: 59.3 nM (active)
T47D
  GI50: 52.7 nM (active)
TK-10
  GI50: 27.9 nM (active)
U-251
  GI50: 65.8 nM (active)
UACC-257
  GI50: 239 nM (active)
UACC-62
  GI50: 223 nM (active)
UO-31
  GI50: 40.5 nM (active)

## COc1ccc(/C=C/c2cc(OC)c(OC)c(OC)c2)cc1O [E-COMBRETASTATIN A-4]
BT-549
  GI50: 8950 nM (inactive)
CAKI-1
  GI50: 6710 nM (inactive)
EKVX
  GI50: 8730 nM (inactive)
HT-29
  GI50: 7890 nM (inactive)
IGROV-1
  GI50: 3170 nM (inactive)
KM-20L2
  GI50: 8710 nM (inactive)
OVCAR-5
  GI50: 22200 nM (inactive)
TK-10
  GI50: 13300 nM (inactive)
UO-31
  GI50: 1130 nM (inactive)

Reference: ChEMBL document CHEMBL1201862, “PubChem BioAssay data set” (2004)
